# According to patent publication US9212168B2 (priority 2011, dated 2015):
# Experiments:
# HCV genotype 1a replicon = HCV genotype 1a replicon assay (NS3 protease activity readout); format: cell-based, hepatitis C virus; conditions: for EC50: Hepatitis C virus, read-out: Genotype 1a, HCV genotype 1a replicon; for Genotype 1a: HCV genotype 1a replicon
# Summary of the method: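 EC50 values came from a 4-parameter robust fit of fluorescence (ex 340, em 509 nm) produced by NS3-specific protease in lysates, assayed with 15 μM FRET substrate for 20 min at 37° C, after 48 or 72 hours of compound exposure (0.5% DMSO) of Huh7.5-derived APC89 genotype 1a replicon cells.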
# HCV genotype 1b replicon = HCV genotype 1b replicon assay (Renilla luciferase readout); format: cell-based, hepatitis C virus; conditions: for EC50: Hepatitis C virus, read-out: Genotype 1b; for Genotype 1b: HCV genotype 1b replicon
# Description: Assay 1: HCV Genotype 1b Replicon Assay
# The HCV genotype 1b replicon cell line was obtained from Apath LLC (Brooklyn, N.Y.) (APC144; Huh7 cell background). This subgenomic replicon contains the N-terminus of the HCV core protein fused to the neomycin-resistance selectable marker. The EMCV IRES lies downstream and drives expression of humanized Renilla luciferase fused to the non-structural proteins NS3-NS5B. This cell line was used to determine compound potency using the luciferase activity readout as a measurement of compound inhibition of replicon levels.
# Cells were grown at 37° C. in a 5% CO2 humidified incubator in DMEM (Invitrogen) with 10% FBS (HyClone), 1×NEAA (Invitrogen), 1× Pen-Strep (Invitrogen), and 500 μg/mL G418 (Invitrogen). On day 1 of the assay, cells were plated at 10,000 cells/well in white 96-well tissue culture plates (Costar) in 200 μL media lacking G418. Four hours later, once the cells have adhered, the media was removed and replaced with media (no G418) containing dose-responses of test compounds. Compounds were initially diluted in DMSO and then diluted another 200× in media to bring the final DMSO concentration down to 0.5%. The cells were incubated with test compounds for 48 hours. At the end of the incubation period, media and compound were removed from the plates and the luciferase activity was determined using Promega Renilla-Glo reagents.
# To analyze the data, the luciferase activity was plotted vs. the compound concentration, and EC50 values were determined from a 4-parameter robust fit model with the GraphPad Prism software package (GraphPad Software, Inc., San Diego, Calif.). Results are expressed as the negative decadic logarithm of the EC50 value, pEC50.
# Test compounds having a higher pEC50 value in this assay show greater inhibition of HCV genotype 1b replication.
Structure (SMILES),EC50 (HCV genotype 1a replicon),EC50 (HCV genotype 1b replicon),Genotype 1a (HCV genotype 1a replicon),Genotype 1b (HCV genotype 1b replicon)
COC(=O)N[C@H](C(=O)N1C[C@@H](C)C[C@H]1c1nc(-c2ccc(-c3cc(Cl)c(NC(=O)c4ccc(N5CCN(C(=O)NC(C)(C)C)C[C@H]5C)nc4)cc3OC(F)(F)F)cc2)c[nH]1)C(C)C [Example 12-24],< 0.1 nM,< 0.1 nM,,
COC(=O)N[C@H](C(=O)N1C[C@@H](OC)C[C@H]1c1nc(-c2ccc(-c3cc(F)c(NC(=O)c4ccc(N5CCN(C(=O)C(C)(C)C)C[C@H]5C)nc4)cc3OC(F)(F)F)cc2)c[nH]1)C1CCOCC1 [Example 28-1],,,D (D represents pEC50>10 (EC50<0.1 nM)),D (D represents pEC50>10 (EC50<0.1 nM))
COC(=O)N[C@H](C(=O)N1C[C@@H](OC)C[C@H]1c1nc(-c2ccc(-c3cc(Cl)c(NC(=O)c4ccc(N5CCN(C(=O)[C@H]6CC6(C)C)C[C@H]5C)nc4)cc3OC(F)(F)F)cc2)c[nH]1)C(C)C [Example 27-1],,,D (D represents pEC50>10 (EC50<0.1 nM)),D (D represents pEC50>10 (EC50<0.1 nM))
COC(=O)N[C@H](C(=O)N1C[C@@H](C)C[C@H]1c1nc(-c2ccc(-c3ccc(C(=O)Nc4ccc(N5CCN(C(=O)C(C)(C)C)C[C@H]5C)nc4)cc3)cc2)c[nH]1)C1CCOCC1 [Example 22-1],,,D (D represents pEC50>10 (EC50<0.1 nM)),D (D represents pEC50>10 (EC50<0.1 nM))
"COC(=O)N[C@H](C(=O)N1C[C@@H](N(C)C)C[C@H]1c1nc(-c2ccc(-c3ccc(NC(=O)c4ccc(N5CCN(C(=O)C6CC6)C[C@H]5C)nc4)cc3)cc2)c[nH]1)C(C)C [Example 6, ((S)-1-{(2S,4S)-2-[4-(4′-{[6-((R)-4-Cyclopropanecarbonyl-2-methyl-piperazin-1-yl)-pyridine-3-carbonyl]-amino}-biphenyl-4-yl)-1H-imidazol-2-yl]-4-dimethylamino-pyrrolidine-1-carbonyl}-2-methyl-propyl)-carbamic acid methyl ester]",0.1 to 1 nM,< 0.1 nM,,
COC(=O)N[C@H](C(=O)N1C[C@@H](C)C[C@H]1c1nc(-c2ccc(-c3cc(Cl)c(C(=O)Nc4ccc(N5CCN(C(=O)C(C)(C)C)C[C@H]5C)nc4)cc3OC(F)(F)F)cc2)c(Cl)[nH]1)C1CCOCC1 [Example 22-7],< 0.1 nM,< 0.1 nM,,
COC(=O)NC(C(=O)N1C[C@@H](C)C[C@H]1c1nc(-c2ccc(-c3c(F)cc(NC(=O)c4ccc(N5CCN(C(=O)C(C)(C)C)C[C@H]5C)nc4)cc3F)cc2)c[nH]1)C1CCOCC1 (stereo partly shown) [Example 21-3],< 0.1 nM,< 0.1 nM,,
COC(=O)N[C@H](C(=O)N1C[C@@H](OC)C[C@H]1c1nc(-c2ccc(-c3cc(Cl)c(NC(=O)c4ccc(N5CCN(C(=O)C(C)(C)C)C[C@H]5C)nc4)cc3OC(F)(F)F)cc2)c(CO)[nH]1)C1CCOCC1 [Example 28-15],,,D (D represents pEC50>10 (EC50<0.1 nM)),D (D represents pEC50>10 (EC50<0.1 nM))
COC(=O)NC(C(=O)N1CC(OC)CC1c1nc(-c2ccc(-c3cc(Cl)c(NC(=O)c4ccc(N5CCN(C(=O)C(C)(C)CO)CC5C)nc4)cc3OC(F)(F)F)cc2)c[nH]1)C(C)O (stereo not shown) [Example 16-7],,,D (D represents pEC50>10 (EC50<0.1 nM)),D (D represents pEC50>10 (EC50<0.1 nM))
CNC(=O)N1CCC[C@@H]1C(=O)N1C[C@@H](C)N(c2ccc(NC(=O)c3ccc(-c4ccc(-c5c[nH]c([C@@H]6C[C@H](C)CN6C(=O)[C@@H](NC(=O)OC)C(C)C)n5)cc4)c(OC(F)(F)F)c3)cn2)C[C@@H]1C [Example 4-19],,,D (D represents pEC50>10 (EC50<0.1 nM)),D (D represents pEC50>10 (EC50<0.1 nM))
COC(=O)N[C@H](C(=O)N1C[C@@H](C)C[C@H]1c1nc(-c2ccc(-c3ccc(C(=O)Nc4ccc(N5C[C@H](C)N(C(=O)[C@@]6(O)CC6(C)C)C[C@H]5C)nc4)cc3OC(F)(F)F)cc2)c(Cl)[nH]1)C(C)C [Example 4-37],,,D (D represents pEC50>10 (EC50<0.1 nM)),D (D represents pEC50>10 (EC50<0.1 nM))
